According to PMC9609429 (Pharmaceuticals, 2022):

Experiments:
α1-adrenergic receptors = assay: Influence on blood vasopressor response to adrenaline, noradrenaline and methoxamine in rats; assay type: in vivo; settings: rat, 1.25 mg/kg iv, 5 min after administration
Protocol: To establish agonistic or antagonistic toward α1-adrenergic receptors, we studied the influence of the studied compound on the pressor response to adrenaline (2 µg/kg), noradrenaline (2 µg/kg), and methoxamine (150 µg/kg). Normotensive rats were anesthetized with thiopental (75 mg/kg ip). The right carotid artery was cannulated with a polyethylene tube filled with heparin solution to allow pressure measurements, using a Datamax apparatus (Columbus Instruments, Columbus, OH, USA). The experiment was carried out after 15 min of the stabilization period. The pressor response to adrenaline, noradrenaline, and methoxamine was measured before (control) and 5 min after the administration of the tested compound.

mice = system: mice; design: method as in PMID 34451841; settings: previous studies; cited from earlier work
β1-adrenergic receptor = molecular target: T1, β1-adrenergic receptor (Rattus norvegicus, UniProt P18090); assay: β1-adrenoceptor radioligand binding assay ([3H]-CGP-12177, rat cerebral cortex)
T1 construct: from tissue; host or cells: rat cerebral cortex homogenate
Protocol: The α1-, α2-, and β1-adrenoceptor radioligand binding assay was carried out on the rat cerebral cortex. […] The brains were homogenized using ULTRA-TURRAX homogenizer in 10 mL of an ice-cold 50 mM Tris–HCl buffer (pH 7.6). Homogenates were centrifuged at 20,000× g for 20 min (0–4 °C). Next, the cell pellet was resuspended in the Tris–HCl buffer and centrifuged again. Radioligand binding assays were performed in plates (MultiScreen/Millipore). The final incubation mixture (volume 300 μL) consisted of 240 μL of the tissue suspension, 30 μL of radioligand solution, and 30 μL of the buffer containing 7–8 concentrations of the tested compound. […] The incubation was terminated by rapid filtration through Whatman GF/C filters using a vacuum manifold (Millipore). The filters were then washed twice with the assay buffer and placed in scintillation vials with a liquid scintillation cocktail. […] All the assays were made in duplicates and the inhibitory constants (Ki) were estimated.

5-HT1A receptors = system: 5-HT1A receptors; design: method as in PMID 34451841; settings: previous studies; cited from earlier work
[1] = system: adrenaline-induced arrhythmia in rats; assay: Prophylactic antiarrhythmic activity in adrenaline-induced arrhythmia; assay type: in vivo, rat
Protocol: The experiment was carried out according to the method described by Szekeres and Papp. Normotensive rats were anesthetized with thiopental (75 mg/kg ip). Adrenaline was administered at the dose of 20 µg/kg to induce heart rhythm disturbances. The studied compound was injected intraperitoneally 45 min before the arrhythmogen. The electrocardiogram (ECG) was recorded during the first 2 min and in the 5th, 10th, and 15th min after the adrenaline injection. The criterion of prophylactic antiarrhythmic activity was the lack of extrasystoles and inhibition of cardiac arrhythmia in comparison with the control group. The ED50 (a dose producing a 50% inhibition of ventricular contractions) was determined by computer log-probit analysis according to Litchfield and Wilcoxon.

α1-adrenoceptor = α1-adrenoceptor radioligand binding assay ([3H]-prazosin, rat cerebral cortex); settings: rat cortex tissue
Protocol: The α1-, α2-, and β1-adrenoceptor radioligand binding assay was carried out on the rat cerebral cortex. [^3H]-prazosin (19.5 Ci/mmol, α1-adrenoceptor), [^3H]-clonidine (70.5 Ci/mmol, α2-adrenoceptor), and [^3H]-CGP-12177 (48 Ci/mmol, β1-adrenergic receptor) were used as specific ligands. The brains were homogenized using ULTRA-TURRAX homogenizer in 10 mL of an ice-cold 50 mM Tris–HCl buffer (pH 7.6). Homogenates were centrifuged at 20,000× g for 20 min (0–4 °C). Next, the cell pellet was resuspended in the Tris–HCl buffer and centrifuged again. Radioligand binding assays were performed in plates (MultiScreen/Millipore). The final incubation mixture (volume 300 μL) consisted of 240 μL of the tissue suspension, 30 μL of radioligand solution, and 30 μL of the buffer containing 7–8 concentrations of the tested compound. […] The incubation was terminated by rapid filtration through Whatman GF/C filters using a vacuum manifold (Millipore). The filters were then washed twice with the assay buffer and placed in scintillation vials with a liquid scintillation cocktail. Radioactivity was measured in a WALLAC 1409 DSA liquid scintillation counter (Perkin Elmer, Waltham, MA, USA). All the assays were made in duplicates and the inhibitory constants (Ki) were estimated.

T1 sequence (P18090 whole entry): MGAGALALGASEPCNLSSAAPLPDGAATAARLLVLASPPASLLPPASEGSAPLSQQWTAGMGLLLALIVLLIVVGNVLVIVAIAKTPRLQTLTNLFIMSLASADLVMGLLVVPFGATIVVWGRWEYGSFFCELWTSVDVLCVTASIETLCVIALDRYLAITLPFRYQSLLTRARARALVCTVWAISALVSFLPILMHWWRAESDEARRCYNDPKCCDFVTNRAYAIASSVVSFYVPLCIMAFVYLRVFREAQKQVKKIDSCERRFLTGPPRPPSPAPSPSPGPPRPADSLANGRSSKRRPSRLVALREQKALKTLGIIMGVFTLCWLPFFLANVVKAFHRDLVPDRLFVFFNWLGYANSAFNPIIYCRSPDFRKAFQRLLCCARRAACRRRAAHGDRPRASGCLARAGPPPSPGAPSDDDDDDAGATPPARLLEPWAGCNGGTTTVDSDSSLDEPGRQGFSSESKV

Ki (β1-adrenergic receptor; rat cortex tissue, [3H]-CGP-12177, read-out: Adrenergic Receptors—pKi β1 (converted)): 3.02 µM
affinity towards β1-adrenoceptor lower compared with the α1 receptor (β1-adrenergic receptor; rat cortex, α1 vs β1): > 1000 fold
Adrenergic Receptors—pKi α1 (α1-adrenoceptor): 8.55
SMILES: CCC(CN1CCN(c2ccccc2OC)CC1)NCCCOc1c(C)cccc1C.Cl.Cl (stereo not shown) [HBK-10, N-(3-(2,6-dimethylphenoxy)propyl)-1-(4-(2-methoxyphenyl)piperazin-1-yl)butan-2-amine dihydrochloride]
attenuation of adrenaline pressor response (α1-adrenergic receptors; adrenaline 2 μg/kg): 77.2%
attenuation of methoxamine pressor response (α1-adrenergic receptors; methoxamine 150 μg/kg): 77.4%
attenuation of noradrenaline pressor response (α1-adrenergic receptors; noradrenaline 2 μg/kg): 32.5%
antidepressant-like effect (mice): antidepressant-like effect
properties at 5-HT1A receptors (5-HT1A receptors): antagonistic properties
ED50 lower than for carvedilol ([1]; HBK-10 ip vs carvedilol iv): ~3 fold
Extrasystoles (%) ([1]; rat, 0.0625 mg/kg ip 45 min before adrenaline 20 μg/kg iv): 83.3%
Extrasystoles (%) ([1]; rat, 0.125 mg/kg ip 45 min before adrenaline 20 μg/kg iv): 50%
Extrasystoles (%) ([1]; rat, 0.25 mg/kg ip 45 min before adrenaline 20 μg/kg iv): 16.7%
ED50 ([1]; rat, ip 45 min before adrenaline 20 μg/kg iv, read-out: ED50 (extrasystoles caused by adrenaline)): 0.125 mg/kg
